Test results as given in the NIST ThermoML archive (doi:10.1021/je4009415).
± gives the expanded uncertainty stated by the source.

Test: xn = mol fraction of the nth substance listed
Details: Liquid, Vibrating tube method

CCOC(=O)CC [ethyl propanoate] + CCCCCCC
Details | mass density [kg/m3]
288.15 K, x1 = 0.0524 | 695.91 ± 0.26
288.15 K, x1 = 0.0988 | 703.07 ± 0.27
288.15 K, x1 = 0.1463 | 710.63 ± 0.28
288.15 K, x1 = 0.1941 | 718.6 ± 0.3
288.15 K, x1 = 0.2514 | 728.31 ± 0.31
288.15 K, x1 = 0.3018 | 737.02 ± 0.33
288.15 K, x1 = 0.3473 | 745.24 ± 0.34
288.15 K, x1 = 0.4004 | 755.32 ± 0.36
288.15 K, x1 = 0.4483 | 764.49 ± 0.38
288.15 K, x1 = 0.5023 | 775.33 ± 0.4
288.15 K, x1 = 0.5493 | 785.04 ± 0.42
288.15 K, x1 = 0.6523 | 807.55 ± 0.47
288.15 K, x1 = 0.7155 | 821.91 ± 0.51
288.15 K, x1 = 0.7532 | 830.95 ± 0.53
288.15 K, x1 = 0.7965 | 841.54 ± 0.56
288.15 K, x1 = 0.8566 | 856.59 ± 0.61
288.15 K, x1 = 0.9037 | 868.82 ± 0.64
288.15 K, x1 = 0.9502 | 881.54 ± 0.68
288.15 K, x1 = 1 | 895.58 ± 0.72
298.15 K, x1 = 0.0502 | 687.02 ± 0.26
298.15 K, x1 = 0.0966 | 693.85 ± 0.27
298.15 K, x1 = 0.1618 | 704.16 ± 0.29
298.15 K, x1 = 0.24 | 717.15 ± 0.31
298.15 K, x1 = 0.3102 | 729.24 ± 0.33
298.15 K, x1 = 0.401 | 745.76 ± 0.36
298.15 K, x1 = 0.4502 | 755.12 ± 0.38
298.15 K, x1 = 0.5047 | 765.87 ± 0.4
298.15 K, x1 = 0.598 | 785.24 ± 0.44
298.15 K, x1 = 0.6478 | 796.11 ± 0.46
298.15 K, x1 = 0.6968 | 807.1 ± 0.49
298.15 K, x1 = 0.7456 | 818.46 ± 0.52
298.15 K, x1 = 0.7933 | 829.93 ± 0.55
298.15 K, x1 = 0.8547 | 845.07 ± 0.6
298.15 K, x1 = 0.9029 | 857.64 ± 0.63
298.15 K, x1 = 0.952 | 870.77 ± 0.67
298.15 K, x1 = 1 | 884.15 ± 0.71
308.15 K, x1 = 0.0489 | 677.99 ± 0.26
308.15 K, x1 = 0.0972 | 685.13 ± 0.27
308.15 K, x1 = 0.1622 | 695.08 ± 0.29
308.15 K, x1 = 0.2109 | 702.86 ± 0.3
308.15 K, x1 = 0.2409 | 707.93 ± 0.31
308.15 K, x1 = 0.3084 | 719.36 ± 0.33
308.15 K, x1 = 0.352 | 727.08 ± 0.34
308.15 K, x1 = 0.4029 | 736.28 ± 0.36
308.15 K, x1 = 0.44 | 743.31 ± 0.37
308.15 K, x1 = 0.5033 | 755.53 ± 0.39
308.15 K, x1 = 0.5515 | 765.29 ± 0.41
308.15 K, x1 = 0.6049 | 776.34 ± 0.44
308.15 K, x1 = 0.6546 | 787.12 ± 0.46
308.15 K, x1 = 0.6957 | 796.27 ± 0.49
308.15 K, x1 = 0.7472 | 808.1 ± 0.52
308.15 K, x1 = 0.8001 | 820.72 ± 0.55
308.15 K, x1 = 0.8549 | 834.09 ± 0.59
308.15 K, x1 = 0.8932 | 843.97 ± 0.62
308.15 K, x1 = 0.949 | 858.62 ± 0.66
308.15 K, x1 = 1 | 872.62 ± 0.7
318.15 K, x1 = 0.0535 | 669.87 ± 0.27
318.15 K, x1 = 0.0979 | 676.31 ± 0.27
318.15 K, x1 = 0.1459 | 683.47 ± 0.28
318.15 K, x1 = 0.2045 | 692.71 ± 0.3
318.15 K, x1 = 0.262 | 702.04 ± 0.31
318.15 K, x1 = 0.3009 | 708.59 ± 0.32
318.15 K, x1 = 0.3494 | 717.01 ± 0.34
318.15 K, x1 = 0.4057 | 727.08 ± 0.35
318.15 K, x1 = 0.4487 | 735.05 ± 0.37
318.15 K, x1 = 0.5052 | 745.9 ± 0.39
318.15 K, x1 = 0.552 | 755.16 ± 0.41
318.15 K, x1 = 0.5969 | 764.38 ± 0.43
318.15 K, x1 = 0.6529 | 776.27 ± 0.46
318.15 K, x1 = 0.7022 | 787.15 ± 0.48
318.15 K, x1 = 0.7467 | 797.21 ± 0.51
318.15 K, x1 = 0.7935 | 808.2 ± 0.54
318.15 K, x1 = 0.8452 | 820.6 ± 0.57
318.15 K, x1 = 0.8929 | 832.6 ± 0.61
318.15 K, x1 = 0.9484 | 847.05 ± 0.65
318.15 K, x1 = 1 | 861.08 ± 0.68
328.15 K, x1 = 0.0528 | 660.86 ± 0.27
328.15 K, x1 = 0.1065 | 668.58 ± 0.28
328.15 K, x1 = 0.1619 | 676.84 ± 0.29
328.15 K, x1 = 0.2123 | 684.53 ± 0.3
328.15 K, x1 = 0.2511 | 690.83 ± 0.31
328.15 K, x1 = 0.3081 | 700.22 ± 0.32
328.15 K, x1 = 0.3519 | 707.73 ± 0.34
328.15 K, x1 = 0.4084 | 717.71 ± 0.35
328.15 K, x1 = 0.4478 | 724.83 ± 0.37
328.15 K, x1 = 0.5074 | 736.13 ± 0.39
328.15 K, x1 = 0.5522 | 744.86 ± 0.41
328.15 K, x1 = 0.6033 | 755.17 ± 0.43
328.15 K, x1 = 0.6454 | 764.1 ± 0.45
328.15 K, x1 = 0.7023 | 776.34 ± 0.48
328.15 K, x1 = 0.7443 | 785.77 ± 0.5
328.15 K, x1 = 0.7989 | 798.4 ± 0.53
328.15 K, x1 = 0.8593 | 812.97 ± 0.57
328.15 K, x1 = 0.8983 | 822.61 ± 0.6
328.15 K, x1 = 0.9494 | 835.87 ± 0.64
328.15 K, x1 = 1 | 849.41 ± 0.67
